Experimental data reported in patent publication US20240116985A1, “STAPLED PEPTIDES AND METHODS THEREOF” (priority 2020, published 2024).
In brackets after ≈: the same amount, converted by molar mass. Like-named read-outs stand apart in the source and are kept apart here.

Assays:
[1] = biological target: T1, full-length beta-Catenin (Uniprot ID P35222) (Homo sapiens, UniProt P35222); assay: Fluorescence polarization IC50 (beta-catenin / 5FAM-TCF4 10-53 competition); format: binding; conditions: read-out: beta-Catenin FP IC50
T1 construct: 10 nM full-length beta-Catenin (Uniprot ID P35222)
T1 sequence (P35222 1-781): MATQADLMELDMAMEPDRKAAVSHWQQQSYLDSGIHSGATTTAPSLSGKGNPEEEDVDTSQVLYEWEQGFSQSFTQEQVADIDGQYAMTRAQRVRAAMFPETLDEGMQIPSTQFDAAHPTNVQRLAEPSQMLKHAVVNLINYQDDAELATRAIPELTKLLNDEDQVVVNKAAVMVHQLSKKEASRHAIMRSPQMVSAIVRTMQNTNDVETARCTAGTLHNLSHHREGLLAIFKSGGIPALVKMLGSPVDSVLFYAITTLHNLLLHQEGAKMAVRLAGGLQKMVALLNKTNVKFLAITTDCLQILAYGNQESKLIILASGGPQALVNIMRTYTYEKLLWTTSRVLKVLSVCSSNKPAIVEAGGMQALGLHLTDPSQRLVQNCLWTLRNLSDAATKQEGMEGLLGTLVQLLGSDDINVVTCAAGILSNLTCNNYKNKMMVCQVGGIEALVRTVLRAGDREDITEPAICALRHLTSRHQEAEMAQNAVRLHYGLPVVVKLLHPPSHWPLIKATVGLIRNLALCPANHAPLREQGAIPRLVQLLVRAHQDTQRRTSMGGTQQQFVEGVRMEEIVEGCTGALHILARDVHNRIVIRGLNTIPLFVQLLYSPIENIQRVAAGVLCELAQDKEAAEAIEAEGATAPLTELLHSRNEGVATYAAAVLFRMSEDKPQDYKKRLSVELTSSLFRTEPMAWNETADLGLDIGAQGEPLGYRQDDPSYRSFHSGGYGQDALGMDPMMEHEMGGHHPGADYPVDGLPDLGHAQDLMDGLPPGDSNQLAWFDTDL

Solubility in PBS = format: physicochemical
Method in brief: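 The PBS solution was ultracentrifuged and the supernatant analyzed by HPLC. Its peak area was divided by that of a 50 μM peptide DMSO reference injection and multiplied by 50 uM to give solubility.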

[2] = biological target: T2, beta-catenin/TCF4 engagement (Homo sapiens, UniProt P35222); assay: Nano-BRET target engagement assay (B-cat-Halo & TCF4-Luc in HEK293 cells); format: cell-based; conditions: absolute IC50; read-out: NanoBRET Abs IC50
T2 construct: expressed in transfected cells; host or cells: HEK293
T2 sequence (P35222 1-781): T1 sequence (P35222 1-781)

| Structure (SMILES) | IC50 ([1]; fluorescence polarization) [nM] | Solubility (Solubility in PBS; Solubility (uM)) [µM] | IC50 [2] [µM] | Solubility (Solubility in PBS) [µM] | IC50 [1] [nM] |
| --- | --- | --- | --- | --- | --- |
| COCCOCCC(=O)N1CCC[C@]12CC=CCCCC1(CCCC=CCCCOC(=O)N3CC[C@@](C(=O)N[C@@H](Cc4ccccc4Cl)C(=O)N[C@@H](Cc4csc5ccccc45)C(=O)N[C@@H](C(N)=O)[C@H](C)O)(C3)NC(=O)[C@H](CC(N)=O)NC(=O)[C@H](Cc3ccccc3)NC(=O)[C@H](C)NC(=O)[C@H](C)NC(=O)[C@H](CC(=O)O)NC(=O)[C@H](CC(=O)O)NC1=O)NC(=O)[C@H](CC(C)(C)C)NC(=O)[C@H](CC(=O)O)NC2=O (stereo partly drawn) [I-1253, mPEG2-PL3-Asp-Npg-B5-Asp-Asp-Ala-Ala-Phe-Asn-PyrS2-2C1F-BztA-dThr-NH2] | 14 | 42 (≈ 84.3 µg/mL) | > 20 | – | – |
| CC(=O)N1CCC[C@]12CC=CCCCC1(CCCC=CCCCOC(=O)N3CC[C@@](C(=O)N[C@@H](Cc4ccccc4Cl)C(=O)N[C@@H](Cc4csc5ccccc45)C(=O)N[C@@H](CCC(N)=O)C(N)=O)(C3)NC(=O)[C@H](CO)NC(=O)[C@H](Cc3ccccc3)NC(=O)[C@H](CC(C)C)NC(=O)[C@H](C)NC(=O)[C@H](CC(=O)O)NC(=O)[C@H](CC(=O)O)NC1=O)NC(=O)[C@H](CC1CCCCC1)NC(=O)[C@H](CC(=O)O)NC2=O (stereo partly drawn) [I-1148, Ac-PL3-Asp-Cha-B5-Asp-Asp-Ala-Leu-Phe-Ser-PyrS2-2C1F-BztA-Gln-NH2] | 50 | – | 21.5 | 10 (≈ 19.9 µg/mL) | – |
| CC(=O)N1CCC[C@]12CC=CCCCC1(CCCC=CCCCOC(=O)N3CC[C@@](C(=O)N[C@@H](Cc4ccccc4Cl)C(=O)N[C@@H](Cc4csc5ccccc45)C(=O)N[C@@H](CCO)C(N)=O)(C3)NC(=O)[C@H](CO)NC(=O)[C@H](Cc3ccccc3)NC(=O)[C@H](C)NC(=O)[C@H](C)NC(=O)[C@H](CC(=O)O)NC(=O)[C@H](CC(=O)O)NC1=O)NC(=O)[C@H](Cc1ccccc1)NC(=O)[C@H](CC(=O)O)NC2=O (stereo partly drawn) [I-1143, Ac-PL3-Asp-Phe-B5-Asp-Asp-Ala-Ala-Phe-Ser-PyrS2-2C1F-BztA-Hse-NH2] | 12 | 44 (≈ 84.2 µg/mL) | 33.1 | – | – |
| CC(=O)N1CCC[C@]12CC=CCCCC1(CCCC=CCCCOC(=O)N3CC[C@@](C(=O)N[C@@H](Cc4ccccc4C(N)=O)C(=O)N[C@@H](Cc4csc5ccccc45)C(=O)N[C@@H](CCC(N)=O)C(N)=O)(C3)NC(=O)[C@H](CC(C)C)NC(=O)[C@H](Cc3ccccc3)NC(=O)[C@H](C)NC(=O)[C@H](C)NC(=O)[C@H](CC(=O)O)NC(=O)[C@H](CC(=O)O)NC1=O)NC(=O)[C@H](CC(C)(C)C)NC(=O)[C@H](CC(=O)O)NC2=O (stereo partly drawn) [I-1315, Ac-PL3-Asp-Npg-B5-Asp-Asp-Ala-Ala-Phe-Leu-PyrS2-2cbmF-BztA-Gln-NH2] | 13 | – | 7.2 | 10 (≈ 19.5 µg/mL) | – |
| C[C@@H]1NC(=O)[C@H](C)NC(=O)[C@H](CC(=O)O)NC(=O)[C@H](CC(=O)O)NC(=O)C2(CCCC=CCCCCCC[C@@](C)(C(=O)N[C@@H](Cc3ccccc3Cl)C(=O)N[C@@H](Cc3csc4ccccc34)C(=O)N[C@@H](CCC(N)=O)C(N)=O)NC(=O)[C@H]([C@@H](C)O)NC(=O)[C@H](Cc3ccccc3)NC1=O)CCCC=CC[C@]1(CCCN1S(C)(=O)=O)C(=O)N[C@@H](CC(=O)O)C(=O)N[C@@H](CC(C)(C)C)C(=O)N2 (stereo partly drawn) [I-1260, MeSO2-PL3-Asp-Npg-B5-Asp-Asp-Ala-Ala-Phe-Thr-S8-2C1F-BztA-Gln-NH2] | 23 | – | 24 | 50 (≈ 96.3 µg/mL) | – |
| CC(=O)N1CCC[C@]12CC=CCCCC1(CCCC=CCCCOC(=O)N3CC[C@@](C(=O)N[C@@H](Cc4c(F)c(F)c(F)c(F)c4F)C(=O)N[C@@H](Cc4csc5ccccc45)C(=O)N[C@@H](CCC(N)=O)C(N)=O)(C3)NC(=O)[C@H](CC(N)=O)NC(=O)[C@H](Cc3ccccc3)NC(=O)[C@H](C)NC(=O)[C@H](C)NC(=O)[C@H](CC(=O)O)NC(=O)[C@H](CC(=O)O)NC1=O)NC(=O)[C@H](CC(C)(C)C)NC(=O)[C@H](CC(=O)O)NC2=O (stereo partly drawn) [I-1186, Ac-PL3-Asp-Npg-B5-Asp-Asp-Ala-Ala-Phe-Asn-PyrS2-Pff-BztA-Gln-NH2] | 128 | 46 (≈ 92.1 µg/mL) | 23.6 | – | – |
| CC(=O)N1CCC[C@]12CC=CCCCC1(CCCC=CCCCOC(=O)N3CC[C@@](C(=O)N[C@@H](Cc4ccccc4Cl)C(=O)N[C@@H](Cc4csc5ccccc45)C(=O)N[C@@H](CCC(N)=O)C(N)=O)(C3)NC(=O)[C@H]([C@@H](C)O)NC(=O)[C@H](Cc3ccccc3)NC(=O)[C@H](C)NC(=O)[C@H](C)NC(=O)[C@H]([C@@H](C)O)NC(=O)[C@H](CC(=O)O)NC1=O)NC(=O)[C@H](CC(C)(C)C)NC(=O)[C@H](CC(=O)O)NC2=O (stereo partly drawn) [I-1168, Ac-PL3-Asp-Npg-B5-Asp-Thr-Ala-Ala-Phe-Thr-PyrS2-2C1F-BztA-Gln-NH2] | 25 | – | 31.4 | 10 (≈ 19.2 µg/mL) | – |
| CC(=O)N1CCC[C@]12CC=CCCCC1(CCCC=CCCCOC(=O)N3CC[C@@](C(=O)N[C@@H](Cc4ccsc4)C(=O)N[C@@H](Cc4csc5ccccc45)C(=O)N[C@@H](CO)C(N)=O)(C3)NC(=O)[C@H]([C@@H](C)O)NC(=O)[C@H](Cc3ccccc3)NC(=O)[C@H](C)NC(=O)[C@H](C)NC(=O)[C@H]([C@@H](C)O)NC(=O)[C@H](CC(=O)O)NC1=O)NC(=O)[C@H](CC(C)(C)C)NC(=O)[C@H](CC(=O)O)NC2=O (stereo partly drawn) [I-1170, Ac-PL3-Asp-Npg-B5-Asp-Thr-Ala-Ala-Phe-Thr-PyrS2-3Thi-BztA-Ser-NH2] | 15 | – | 13.5 | 10 (≈ 18.5 µg/mL) | – |
| CC(=O)N1CCC[C@]12CC=CCCCC1(CCCC=CCCCOC(=O)N3CC[C@@](C(=O)N[C@@H](Cc4ccsc4)C(=O)N[C@@H](Cc4csc5ccccc45)C(=O)N[C@@H](CCC(N)=O)C(N)=O)(C3)NC(=O)[C@H](CC(C)C)NC(=O)[C@H](Cc3ccccc3)NC(=O)[C@H](C)NC(=O)[C@H](C)NC(=O)[C@H](CC(=O)O)NC(=O)[C@H](CC(N)=O)NC1=O)NC(=O)[C@H](CC(C)(C)C)NC(=O)[C@H](CC(=O)O)NC2=O (stereo partly drawn) [I-1207, Ac-PL3-Asp-Npg-B5-Asn-Asp-Ala-Ala-Phe-Leu-PyrS2-3Thi-BztA-Gln-NH2] | 40 | 11 (≈ 21.1 µg/mL) | 7.5 | – | – |
| CC(=O)N1CCC[C@]12CC=CCCCC1(CCCC=CCCCOC(=O)N3CC[C@@](C(=O)N[C@@H](Cc4ccccc4Cl)C(=O)N[C@@H](Cc4csc5ccccc45)C(=O)N[C@@H](CCC(N)=O)C(N)=O)(C3)NC(=O)[C@H](CC(N)=O)NC(=O)[C@H](Cc3ccccc3)NC(=O)[C@H](CCCCNC(C)C)NC(=O)[C@H](C)NC(=O)[C@H](CC(=O)O)NC(=O)[C@H](CC(=O)O)NC1=O)NC(=O)[C@H](CC(C)(C)C)NC(=O)[C@H](CC(=O)O)NC2=O (stereo partly drawn) [I-1132, Ac-PL3-Asp-Npg-B5-Asp-Asp-Ala-iPrLys-Phe-Asn-PyrS2-2C1F-BztA-Gln-NH2] | – | 49 (≈ 100 µg/mL) | > 20 | – | 21 |
| CC(=O)N1CCC[C@]12CC=CCCCC1(CCCC=CCCCOC(=O)N3CC[C@@](C(=O)N[C@@H](Cc4c(F)c(F)c(F)c(F)c4F)C(=O)N[C@@H](Cc4csc5ccccc45)C(=O)N[C@@H](CO)C(N)=O)(C3)NC(=O)[C@H]([C@@H](C)O)NC(=O)[C@H](Cc3ccccc3)NC(=O)[C@H](C)NC(=O)[C@H](C)NC(=O)[C@H](CC(=O)O)NC(=O)[C@H](CC(=O)O)NC1=O)NC(=O)[C@H](CC1CCCCC1)NC(=O)[C@H](CC(=O)O)NC2=O (stereo partly drawn) [I-1187, Ac-PL3-Asp-Cha-B5-Asp-Asp-Ala-Ala-Phe-Thr-PyrS2-Pff-BztA-Ser-NH2] | 80.5 | 42 (≈ 82.9 µg/mL) | 28.6 | – | – |
| CC(=O)N1CCC[C@]12CC=CCCCC1(CCCC=CCCCOC(=O)N3CC[C@@](C(=O)N[C@@H](Cc4ccccc4Cl)C(=O)N[C@@H](Cc4csc5ccccc45)C(=O)N[C@@H](CCC(N)=O)C(N)=O)(C3)NC(=O)[C@H]([C@@H](C)O)NC(=O)[C@H](Cc3ccccc3)NC(=O)[C@H](C)NC(=O)[C@H](C)NC(=O)[C@H]([C@@H](C)O)NC(=O)[C@H](CC(=O)O)NC1=O)NC(=O)[C@H](CC1CCCCC1)NC(=O)[C@H](CC(=O)O)NC2=O (stereo partly drawn) [I-1175, Ac-PL3-Asp-Cha-B5-Asp-Thr-Ala-Ala-Phe-Thr-PyrS2-2C1F-BztA-Gln-NH2] | 24 | – | 27.3 | 10 (≈ 19.5 µg/mL) | – |
| COCCC(=O)N1CCC[C@]12CC=CCCCC1(CCCC=CCCCCCC[C@@](C)(C(=O)N[C@@H](Cc3ccccc3Cl)C(=O)N[C@@H](Cc3csc4ccccc34)C(=O)N[C@@H](CCC(N)=O)C(N)=O)NC(=O)[C@H]([C@@H](C)O)NC(=O)[C@H](Cc3ccccc3)NC(=O)[C@H](C)NC(=O)[C@H](C)NC(=O)[C@H](CC(=O)O)NC(=O)[C@H](CC(=O)O)NC1=O)NC(=O)[C@H](CC(C)(C)C)NC(=O)[C@H](CC(=O)O)NC2=O (stereo partly drawn) [I-1261, MeOPr-PL3-Asp-Npg-B5-Asp-Asp-Ala-Ala-Phe-Thr-S8-2C1F-BztA-Gln-NH2] | 31 | – | 19.8 | 50 (≈ 96.7 µg/mL) | – |
